Article PMC12294314, “Bioactive Properties of Persea americana Peel Extract and Their Role in Hypercholesterolemia Management and Cardiovascular Health” (Foods, 2025)
Read-outs that look alike come from different tables or passages of the source.

Key:
Caco-2 cells [1] = assay: Permeation of extract compounds across Caco-2 monolayer (Papp); assay type: in vitro ADME, human
Procedure: (§1) The permeation of the extract in Caco-2 cells was evaluated for three phenolic compounds previously identified and quantified, namely chlorogenic acid, catechin, and epicatechin. […] After 6 h, a sample was collected from the basolateral side and analyzed by HPLC-DAD, using a LiChroCART® 250-4 LiChrospher® 100 RP-18 (5 μm) column (Merck KGaA, Darmstadt, Germany), following the conditions described in a previous study.

[2] = as above; assay type: in vitro ADME, human; settings: human
Procedure: as §1

HepG2 cells = assay: Reactive oxygen species (ROS) production in HepG2 cells (DCFDA); assay type: cell-based, human; settings: TBHP 200 µM alone, 6 h, PBS control = 100%
Procedure: The quantification of reactive oxygen species (ROS) produced in the HepG2 cell line was assessed. HepG2 cells were plated at a concentration of 2.5 × 10^4 cells/well in a black, transparent-bottom 96-well microplate and incubated for 24 h. Afterward, a solution of the 2′,7′–dichlorodifluorescin diacetate (DCFDA) (0.1 mM) was added to the cells and they were incubated in the dark for 45 min. The solution was then removed, and the following samples were applied: a control with only the PBS, tert-butyl hydroperoxide (TBHP) at 200 µM, the extract at 0.164 mg/mL, and a combination of the extract and THBP with their final concentrations being 0.164 mg/mL and 200 µM, respectfully. The microplate was incubated for 6 h in the dark, after which fluorescence was measured with excitation at 495 nm and emission at 527 nm, both at 37 °C (SpectraMax® GEMINI XPS/EM, Molecular Devices®, San Jose, CA, USA). ROS production was determined using Equation (1) by considering that the fluorescence produced by the control group was 100%.(1) ROS Production % =AbsSample/AbsControl × 100 where AbsSample corresponds to the absorbance of the samples and AbsControl corresponds to the absorbance of the control. The assays were carried out in quadruplicate.

Caco-2 cells [3] = assay: Cholesterol permeation across differentiated Caco-2 monolayer; assay type: cell-based, human; settings: cholesterol 5 mM apical, 6 h, extract 0.240 mg/mL, ezetimibe 0.1 mM (methods) / 0.01 mM (Figure 3 legend)
Procedure: The cholesterol permeation assays were carried out by following the protocol described by Arantes et al.. Caco-2 cells were cultured in a 12-well microplate with inserts (A = 1.1 cm^2) and maintained until differentiation. To evaluate the integrity of the membrane, transepithelial electrical resistance (TEER) of the formed membrane was measured. When the TEER value exceeded 250 Ω·cm^2, it was considered that the membrane was formed.
Subsequently, 0.5 mL of the solutions to be analyzed was added on the apical side of each insert: cholesterol (5 mM) (control), extract (0.240 mg/mL), extract (0.240 mg/mL) with cholesterol (5 mM), and ezetimibe (0.1 mM) with cholesterol (5 mM). On the basolateral side, 1.5 mL of the Hank’s Balanced Salt Solution (HBSS) was added. The cells were incubated at 37 °C in a 5% CO2 atmosphere for 6 h. After this period, the basolateral solution of each well was collected and analyzed by high-performance liquid chromatography coupled to a diode-array detector (HPLC-DAD) using an Elite LaChrom® (HITACHI, VWR, Tokyo, Japan), with an Autosampler L-2200, a Column Oven L-2300, and a Diode Array Detector L 2455 (VWR, Radnor, PA, USA). The column used was LiChroCART® 250-4 LiCrosphere®100 RP-8 (5 μm) (Merk, Darmstadt, Germany). The conditions followed were the ones presented by Pinto et al.. […]

Compound: Oc1cc(O)c2c(c1)OC(c1ccc(O)c(O)c1)C(O)C2 (single isomer, unassigned; (+)) [Catechin (13), (+)-Catechin]
- Papp (Caco-2 cells [1]; Caco-2): 14.4 10^−6 cm/s

Compound: O=C(/C=C/c1ccc(O)c(O)c1)O[C@@H]1C[C@](O)(C(=O)O)C[C@@H](O)[C@H]1O [Chlorogenic Acid (3), Chlorogenic Acid]
- Papp at 6 h, 0.24 mg/mL ([2]; Caco-2, apical sample: extract (0.240 mg/mL), Caco-2, 6 h, read-out: Papp): 6.5 ×10⁻⁶ cm/s
- Papp at 6 h, 0.24 mg/mL ([2]; Caco-2, apical sample: extract, Caco-2, read-out: Permeability class (from Papp)): 1 to 10 ×10⁻⁶ cm/s

Compound: Oc1cc(O)c2c(c1)O[C@H](c1ccc(O)c(O)c1)[C@H](O)C2 [Epicatechin (15), (−)-Epicatechin]
- Papp (Caco-2 cells [1]; human, Caco-2, 6 h, 0.24 mg/mL): 24.0 10^−6 cm/s
- Papp at 6 h, 0.24 mg/mL ([2]; Caco-2, Permeability class (from Papp)): > 10 ×10⁻⁶ cm/s

Compound: CC(C)(C)OO [TBHP, tert-butyl hydroperoxide]
- ROS production (% of control) (HepG2 cells): approximately 395%

Compound: O=C1[C@H](CC[C@H](O)c2ccc(F)cc2)[C@@H](c2ccc(O)cc2)N1c1ccc(F)cc1 [ezetimibe]
- Reduction in cholesterol permeability (Caco-2 cells [3]): 62 ± 5%
